From paper PMC10458698, “Characterization of the interferences of systemic azole antifungal drugs with adrenal steroid biosynthesis using H295R cells and enzyme activity assays” (Current Research in Toxicology, 2023)

Experiments:
CYP17A1 17α-hydroxylase = target: T1, CYP17A1 17α-hydroxylase (Homo sapiens, UniProt P05093); test: CYP17A1 17α-hydroxylase activity assay, microsomes of transfected COS-1 cells; assay type: biochemical; conditions: cell-free; for inhibition of CYP17A1 17α-hydroxylase: in words; for IC50: progesterone 500 nM, 10 min, read-out: IC50 CYP17A1 17α-hydroxylase mean
T1 construct: expressed in transfected cells; host or cells: COS-1 cells, transient transfection, microsomal fraction
T1 sequence (P05093 1-508): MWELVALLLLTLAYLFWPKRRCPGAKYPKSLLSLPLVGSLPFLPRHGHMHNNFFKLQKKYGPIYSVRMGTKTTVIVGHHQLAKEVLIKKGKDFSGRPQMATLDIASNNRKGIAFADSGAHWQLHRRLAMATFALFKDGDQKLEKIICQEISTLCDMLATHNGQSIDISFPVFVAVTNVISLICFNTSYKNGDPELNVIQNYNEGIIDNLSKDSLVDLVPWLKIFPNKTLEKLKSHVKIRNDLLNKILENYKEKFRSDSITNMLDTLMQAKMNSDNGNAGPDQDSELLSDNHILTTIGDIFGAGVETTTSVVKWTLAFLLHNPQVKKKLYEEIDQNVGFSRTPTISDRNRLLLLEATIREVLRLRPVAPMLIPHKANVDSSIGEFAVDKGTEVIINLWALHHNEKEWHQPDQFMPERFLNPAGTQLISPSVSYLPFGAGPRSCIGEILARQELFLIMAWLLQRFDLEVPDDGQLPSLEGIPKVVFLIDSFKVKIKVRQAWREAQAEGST
Description: (§1) Microsomes were prepared from COS-1 cells transiently transfected with plasmids for either CYP17A1 and POR for CYP17A1-hydroxylase assay (human CYP17A1 was available in our own plasmid collection after cloning into pcDNA3, POR was ordered from Genescript, Piscataway, USA, clone ID OHu25584C), CYP17A1, POR and cytochrome b5 for CYP17A1 17,20-lyase assay (cytochrome b5 was from Genescript, clone ID OHu09495D), POR and CYP21A2 (Genescript, CYP21A2 clone ID OHu18602D), or 3β-HSD2 (Genescript, clone ID OHu14034D). Transfection was performed using PEI and equal amounts of required plasmids with a total DNA amount of 8 µg per transfection of 3,000,000 cells. After overnight incubation, cells were washed with prewarmed PBS before adding ice-cold PBS. Cells were collected and centrifuged at 600 × g for 4 min at 4 °C, washed with ice cold PBS and centrifuged again. The pellet was resuspended in a resuspension buffer (20 mM Tris, pH 7.5, 50 mM KCl, 2 mM MgCl2, 0.25 M sucrose). Cells were disrupted with 30 S by a glass potter (2 cm^3) as described above. The homogenate was centrifuged for 20 min at 12,000 × g and 4 °C. Microsomes were pelleted by ultracentrifugation at 100,000 × g for 1 h at 4 °C. The pellet was resuspended in reaction buffer and the protein concentration determined using the Pierce Protein BCA kit as described above.
Microsomal protein (250 µg/mL) was preincubated with 1 mM NADPH and the compound of interest in reaction buffer for 10 min. The reaction was started by adding progesterone spiked with a radioactive tracer (final activity 0.025 mCi) to a final concentration of 500 nM. After 10 min of incubation at 37 °C the reaction was stopped by adding enzyme substrate and product at a final concentration of 1 mM in methanol, followed by shock-freezing in liquid nitrogen. Steroids were separated by thin layer chromatography on SIL G-25 UV254 TLC plates (Macherey-Nagel, Düren, Germany) using chloroform and ethyl acetate (1:4; v:v). Bands were excised and radiolabeled steroids analyzed by scintillation counting using […] Plus cocktail (Zinsser Analytic, Frankfurt am Main, Germany) and a β-counter (Packard, Connecticut, USA). Relative conversion was calculated based on total counts.

H295R cells = test: Steroidogenesis assay in forskolin-stimulated H295R cells, UHPLC-MS/MS; assay type: cell-based, human; conditions: 48 h
Description: Briefly, 200,000 cells/mL between passages 5 and 10 were seeded in a 24-well plate. After 24 h, the medium was replaced by fresh medium containing reference or test compounds. […] As a time zero control, complete medium was incubated without cells. After 48 h of incubation, the cell culture supernatant was collected and stored at −20 °C until steroid quantification was performed by ultra-high liquid chromatography tandem mass spectrometry (UHPLC-MS/MS). All experiments were performed three times independently in technical duplicates.
Using water, the sample volume was adapted to 1 mL. Samples were extracted using Oasis HLB 3 cc SPE cartridge (30 mg, 30 μm particle size, Waters, Massachusetts, USA). Columns were preconditioned with 1 mL ethyl acetate and water prior to application of samples. After sample loading, columns were washed three times with 1 mL methanol (10% v/v) and water before samples were eluted applying 0.75 mL ethyl acetate twice. Eluates were evaporated to dryness and reconstituted in 50 µL methanol. Samples were applied to a reverse phase column (Waters Acquity UPLC BEH C18, 1.7 μm, 2.1 mm × 150 mm). […] Applied mobile phases consisted of water, acetonitrile and formic acid (95/5/0.1; v/v/v and 5/95/0.1; v/v/v). For data analysis, Hunter software version B.09.00 (Agilent Technologies) was used. Lower limit of detection (LOD), lower limit of quantification (LLOQ), and upper limit of quantification (ULOQ) are shown in Table 1.

CYP11B1 = tested on: CYP11B1; parameters: method as in Beck et al., 2020a; conditions: ref Beck et al., 2020a; cited from earlier work
CYP17A1 17,20-lyase = target: T2, CYP17A1 17,20-lyase (Homo sapiens, UniProt P05093); test: CYP17A1 17,20-lyase activity assay, microsomes of transfected COS-1 cells; assay type: biochemical; conditions: for IC50: 17α-hydroxypregnenolone 500 nM, 1 h; for lower inhibitory potency against 17,20-lyase than posaconazole: relative to posaconazole
T2 construct: expressed in transfected cells; host or cells: COS-1 cells, transient transfection, microsomal fraction
T2 sequence (P05093 1-508): T1 sequence (P05093 1-508)
Description: as §1
Microsomes, 250 µg/mL, expressing CYP17A1, POR and cytochrome b5 were incubated in reaction buffer for 10 min with 1 mM NADPH and the azole antifungals. The reaction was started by adding 500 nM 17α-hydroxypregnenolone in a total reaction volume of 50 µL. After 1 h of incubation at 37 °C, the reaction was stopped adding 50 µL methanol. Samples were evaporated to dryness, reconstituted in 6 µL methanol, diluted 1:25 in water and the DHEA concentration was quantified using an ELISA kit (DEH3344, Demeditec, Kiel, Germany). Absorbance was measured using a BioTek Citation5 imaging reader.

[1] = 30 nM, 10 μM forskolin, relative to forskolin control

| inhibition of CYP17A1 17α-hydroxylase (CYP17A1 17α-hydroxylase) | IC50 (CYP17A1 17α-hydroxylase) [nM] | IC50 (CYP17A1 17,20-lyase; cell-free) [nM] | inhibition of CYP17A1 17,20-lyase (CYP17A1 17,20-lyase; cell-free, in words) | preference for 17,20-lyase over the 17α-hydroxylase activity (CYP17A1 17,20-lyase; ratio of IC50 values) | SMILES | lower level of the CYP11B2 product aldosterone (H295R cells; [1]) [%] | lower levels of the CYP11B1 products cortisol and corticosterone (H295R cells; [1]) | inhibition of cortisol, corticosterone and aldosterone production (H295R cells; 300 nM and higher concentrations) | effect on the steroid profile (H295R cells; forskolin-stimulated, in words) | product/substrate ratio 17α-hydroxyprogesterone/progesterone (apparent CYP17A1 17α-hydroxylase activity) (H295R cells; forskolin-stimulated, in words) | product/substrate ratios corticosterone/11-DOC and cortisol/cortexolone (apparent CYP11B1 activity) (H295R cells; forskolin-stimulated, in words) | IC50 (CYP11B1) [nM] | concentrations that block overall steroidogenesis (H295R cells; forskolin-stimulated) [µM] | lower inhibitory potency against 17,20-lyase than posaconazole (CYP17A1 17,20-lyase) [times] | effect on the steroid profile (H295R cells; forskolin-stimulated, in words, listed as Itraconazole) |
| --- | --- | --- | --- | --- | --- | --- | --- | --- | --- | --- | --- | --- | --- | --- | --- |
| moderately inhibited | 1120 | 280 | potently inhibited | four-fold preference | CC[C@@H]([C@H](C)O)n1ncn(-c2ccc(N3CCN(c4ccc(OC[C@@H]5CO[C@@](Cn6cncn6)(c6ccc(F)cc6F)C5)cc4)CC3)cc2)c1=O [posaconazole, Posaconazole] | ~50 | about 40% | complete inhibition | did not affect progesterone and 11-DOC levels | indicated 17α-hydroxylase inhibition | decreased with increasing concentrations | 60 |  |  |  |
| very weakly | > 10000 | 5710 |  |  | C[C@@H](c1nc(-c2ccc(C#N)cc2)cs1)[C@](O)(Cn1cncn1)c1cc(F)ccc1F [isavuconazole] |  |  |  | concentration-dependent decrease in all measured steroids |  | did not indicate an inhibition of CYP11B1 and CYP11B2 | 3000 | ≥ 1 | 20 |  |

| SMILES | inhibition of CYP17A1 17α-hydroxylase (CYP17A1 17α-hydroxylase) | IC50 (CYP17A1 17α-hydroxylase) [nM] | IC50 (CYP17A1 17,20-lyase; cell-free) [nM] | inhibition of CYP17A1 17,20-lyase (CYP17A1 17,20-lyase; cell-free, in words) | preference for 17,20-lyase over the 17α-hydroxylase activity (CYP17A1 17,20-lyase; ratio of IC50 values) | lower level of the CYP11B2 product aldosterone (H295R cells; [1]) [%] | lower levels of the CYP11B1 products cortisol and corticosterone (H295R cells; [1]) | inhibition of cortisol, corticosterone and aldosterone production (H295R cells; 300 nM and higher concentrations) | effect on the steroid profile (H295R cells; forskolin-stimulated, in words) | product/substrate ratio 17α-hydroxyprogesterone/progesterone (apparent CYP17A1 17α-hydroxylase activity) (H295R cells; forskolin-stimulated, in words) | product/substrate ratios corticosterone/11-DOC and cortisol/cortexolone (apparent CYP11B1 activity) (H295R cells; forskolin-stimulated, in words) | IC50 (CYP11B1) [nM] | concentrations that block overall steroidogenesis (H295R cells; forskolin-stimulated) [µM] | lower inhibitory potency against 17,20-lyase than posaconazole (CYP17A1 17,20-lyase) [times] | effect on the steroid profile (H295R cells; forskolin-stimulated, in words, listed as Itraconazole) |
| --- | --- | --- | --- | --- | --- | --- | --- | --- | --- | --- | --- | --- | --- | --- | --- |
| CCC(C)n1ncn(-c2ccc(N3CCN(c4ccc(OCC5COC(Cn6cncn6)(c6ccc(Cl)cc6Cl)O5)cc4)CC3)cc2)c1=O (stereo not shown) [itraconazole] |  | > 10000 | 5760 |  |  |  |  |  | lowered the levels of all steroids in a concentration-dependent manner |  | less potently | 440 | ≥ 1 | 20 | inhibited the production of corticosterone and aldosterone and, to a lesser extent, of cortisol in a concentration-dependent manner |
